Common to all, as to assay: inhibition of tumour cell growth, NCI panel, 48 h
The subject of experiment [1] is A549 NSCLC.
Experiment [2] concerns IGROV1 ovarian.
Experiment [3] relates to RXF 393 renal.
The subject of experiment [4] is SF-295 CNS.
In experiment [5] the test system is HCT-15 colon.
Experiment [6] relates to LOX IMVI melanoma.
The subject of experiment [7] is SW-620 colon.
Experiment [8] relates to 786-0 renal.
In experiment [9] the test system is HCC-2998 colon.
Experiment [10] relates to RPMI-8226 leukemia.
The subject of experiment [11] is UACC-62 melanoma.
Experiment [12] relates to HOP-92 NSCLC.
Experiment [13] relates to K-562 leukemia.
The test system of experiment [14] is SN12C renal.
Experiment [15] relates to OVCAR-3 ovarian.
Experiment [16] concerns SNB-75 CNS.
The test system of experiment [17] is A498 renal.
In experiment [18] the test system is SNB-19 CNS.
Experiment [19] has as its system CCRF-CEM leukemia.
For experiment [20], the system named is NCI-H522 lung.

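Test compounds were applied to cells in 96-well plates for 48 hours at 5 doses. At the TGI there is no net growth.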

Consider `CC(=O)NC1=C(NC(C)(C)C)C(=O)c2ccccc2C1=O`, for which the TGI in [1] is more than 100 µM; in experiment [2], 70.4 µM; in [3], 33.3 µM; in [4] it was more than 100 µM; in [5], 34.5 µM; in experiment [6], 30.8 µM. Besides, the TGI in experiment [7] was 30.1 µM; in [8] it was 11.6 µM; in [9], more than 100 µM; in experiment [10], 37.1 µM; in [11], 27.3 µM; in experiment [12], 34.6 µM. The TGI was 25.2 µM in experiment [13]; 34.8 µM in [14]; 33.1 µM in experiment [15]; 26.5 µM in [16]; 50.2 µM in [17]; more than 100 µM in [18]. Besides, in [19], the TGI came out at 9.28 µM.
Turning to `CN1C/C(=C\c2cccs2)C2=NN(C)C(c3cccs3)C2C1` (stereo not given), the TGI in experiment [1], in experiment [2], in experiment [3], in experiment [4], in experiment [5] and in experiment [6] was more than 100 µM in each case. Further, the TGI in experiment [7] is more than 100 µM; in [20] it was more than 100 µM; in experiment [8], more than 100 µM; in experiment [9] it was more than 100 µM; in experiment [10] it was 95.3 µM; in experiment [11], more than 100 µM. Moreover, the TGI in [12], in experiment [13], in [14], in experiment [15], in experiment [17] and in experiment [18] was more than 100 µM each time. Besides, the TGI in experiment [19] is more than 100 µM.
As to `O=S(=O)(c1ccccc1)C(c1ccc2ccccc2n1)S(=O)(=O)c1ccccc1`, the TGI in experiment [1], in experiment [2], in experiment [3], in [4], in [5] and in experiment [6] was more than 100 µM each time. In addition, the TGI in experiment [7], in experiment [20], in experiment [8], in [9], in experiment [10] and in [12] was more than 100 µM each time. The TGI in experiment [13], in [14], in experiment [15], in [16], in experiment [17] and in [18] was more than 100 µM throughout.
`CCO/C=N\c1c(C#N)c(-c2ccc(Cl)cc2)cn1-c1ccc(C)cc1`: the TGI in [1], in experiment [2], in experiment [3], in experiment [4], in experiment [5] and in [6] was more than 100 µM in each case. In addition, the TGI in experiment [7], in experiment [20], in experiment [8], in experiment [9], in [11] and in experiment [12] was more than 100 µM in each case. Moreover, the TGI in [13], in experiment [14], in experiment [15], in experiment [16], in experiment [17] and in experiment [18] was more than 100 µM throughout. The compound also yielded a TGI in experiment [19] of more than 100 µM.
In the case of `COc1ccc2cc3[nH]c(=O)cc(O)c3cc2c1OC`, the TGI in experiment [1], in [2], in experiment [3], in [4], in experiment [5] and in experiment [6] was more than 100 µM in each case. The TGI in [7], in [8], in experiment [9], in [10], in experiment [11] and in [12] was more than 100 µM throughout. In addition, the TGI in experiment [13], in [14], in experiment [15], in [16], in [17] and in experiment [18] was more than 100 µM in each case. This compound showed a TGI in experiment [19] of more than 100 µM.
`CSC1=Nc2ccccc2-c2nc3ccccc3cc2C1`: the TGI in experiment [1], in [2], in experiment [3], in [4], in experiment [5] and in experiment [6] was more than 100 µM throughout. The TGI in experiment [20], in [8], in [9], in experiment [11], in experiment [12] and in experiment [13] was more than 100 µM each time. Besides, the TGI in [14], in experiment [15], in experiment [17], in [18] and in [19] was more than 100 µM throughout.
Turning to `CCN(CC)CCC(=O)c1ccc(C)cc1`, the TGI in [1] is more than 100 µM; in [2] it was 37.6 µM; in experiment [3] it was 31.1 µM; in [4], more than 100 µM; in [5], 33.6 µM; in [6], more than 100 µM. The TGI was 36.9 µM in experiment [7]; 32.7 µM in [20]; 34.3 µM in [8]; more than 100 µM in experiment [9]; more than 100 µM in [11]; 36 µM in [12]. Also, the TGI is 52.3 µM in experiment [13]; more than 100 µM in [14]; 33.1 µM in experiment [15]; more than 100 µM in [16]; 67.2 µM in experiment [17]; more than 100 µM in experiment [18]. Besides, the TGI in experiment [19] turned out to be 31.2 µM.

(Values after PubChem BioAssay (NCI).)
